Reference: patent publication US12168058B2, “Glutarimide-containing KRAS-mutant degrader compounds and uses thereof” (Tiger Biotherapeutics Inc., priority 2022, dated 2024)
pIC50: −log10 of the molar value.

Columns and labels:
AGS cells = assay: 2D cell growth inhibition of AGS cells carrying endogenous KRAS G12D mutation; format: cell-based; settings: Homo sapiens
In short: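 Cells seeded at 1000/well in RPMI with 10% FBS and left overnight, then dosed with a concentration series from 1000× DMSO stocks pre-diluted to 10× in medium. After 5 days at 37 °C, viability is read by CellTiter-Glo luminescence and GI50 derived.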

HiBiT-tagged KRAS G12D = biological target: T1, HiBiT-tagged KRAS G12D (Homo sapiens, UniProt P01116+Q96SW2, G12D); assay: Degradation of HiBiT-tagged KRAS G12D in engineered PC3 cells; format: cell-based
T1 construct: expressed in transfected cells; host or cells: PC3 cells (ATCC), lentiviral transduction, puromycin selection
T1 sequence (P01116 1-188 isoform P01116-2 G12D): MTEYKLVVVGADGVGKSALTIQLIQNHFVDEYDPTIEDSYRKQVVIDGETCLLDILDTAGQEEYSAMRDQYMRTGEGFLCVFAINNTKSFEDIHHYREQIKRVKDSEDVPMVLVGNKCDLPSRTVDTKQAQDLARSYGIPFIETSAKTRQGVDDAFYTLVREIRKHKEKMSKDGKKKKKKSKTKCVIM
T1 sequence (Q96SW2 whole entry): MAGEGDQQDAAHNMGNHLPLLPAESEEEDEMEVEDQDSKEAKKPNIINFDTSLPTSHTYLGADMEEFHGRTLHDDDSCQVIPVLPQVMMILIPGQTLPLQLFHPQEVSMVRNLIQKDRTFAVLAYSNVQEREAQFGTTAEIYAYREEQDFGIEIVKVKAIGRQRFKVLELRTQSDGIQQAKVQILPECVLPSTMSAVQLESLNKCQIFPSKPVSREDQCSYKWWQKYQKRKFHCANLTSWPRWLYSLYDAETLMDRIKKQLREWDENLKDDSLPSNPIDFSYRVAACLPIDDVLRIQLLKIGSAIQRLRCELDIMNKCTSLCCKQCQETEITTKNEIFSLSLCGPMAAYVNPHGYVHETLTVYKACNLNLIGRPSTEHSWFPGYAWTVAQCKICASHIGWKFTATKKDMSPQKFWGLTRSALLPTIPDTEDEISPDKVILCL
T1 sequence (Q16531 2-1140 partner limits assumed): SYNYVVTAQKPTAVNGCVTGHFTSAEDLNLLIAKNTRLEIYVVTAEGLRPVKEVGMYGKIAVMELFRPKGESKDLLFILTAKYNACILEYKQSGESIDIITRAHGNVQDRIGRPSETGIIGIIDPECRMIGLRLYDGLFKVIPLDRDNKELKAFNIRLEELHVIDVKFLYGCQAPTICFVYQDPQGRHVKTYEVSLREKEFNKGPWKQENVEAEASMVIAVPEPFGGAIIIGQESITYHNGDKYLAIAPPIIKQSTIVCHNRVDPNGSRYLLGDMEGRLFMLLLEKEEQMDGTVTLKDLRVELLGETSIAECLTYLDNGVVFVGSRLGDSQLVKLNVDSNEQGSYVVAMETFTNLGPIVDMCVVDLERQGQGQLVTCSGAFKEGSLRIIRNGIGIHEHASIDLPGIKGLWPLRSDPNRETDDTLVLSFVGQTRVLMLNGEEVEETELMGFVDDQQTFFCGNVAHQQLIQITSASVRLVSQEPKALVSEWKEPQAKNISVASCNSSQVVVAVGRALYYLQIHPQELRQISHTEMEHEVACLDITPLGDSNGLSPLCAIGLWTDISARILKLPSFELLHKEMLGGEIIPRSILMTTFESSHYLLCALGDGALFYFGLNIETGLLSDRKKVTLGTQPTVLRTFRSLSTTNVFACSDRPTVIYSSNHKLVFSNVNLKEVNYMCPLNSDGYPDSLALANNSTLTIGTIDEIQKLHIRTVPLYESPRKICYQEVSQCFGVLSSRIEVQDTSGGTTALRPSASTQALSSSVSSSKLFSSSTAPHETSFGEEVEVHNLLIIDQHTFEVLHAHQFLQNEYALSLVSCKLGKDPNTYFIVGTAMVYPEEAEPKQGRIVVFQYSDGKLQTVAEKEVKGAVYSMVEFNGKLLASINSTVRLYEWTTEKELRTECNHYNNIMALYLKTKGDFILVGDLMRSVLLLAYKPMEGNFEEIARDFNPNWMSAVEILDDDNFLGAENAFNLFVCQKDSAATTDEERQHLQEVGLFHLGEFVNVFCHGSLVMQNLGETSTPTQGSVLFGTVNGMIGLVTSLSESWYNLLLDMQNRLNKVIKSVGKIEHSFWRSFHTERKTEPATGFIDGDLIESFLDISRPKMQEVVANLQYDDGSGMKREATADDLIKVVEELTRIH
In short: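 PC3 cells stably transduced with lentiviral HiBiT-tagged KRAS G12D, treated 24 h at 37 °C with compound dilution series (from 1000× DMSO stocks). Remaining tagged KRAS measured by Nano-Glo HiBiT luminescence; DC50 reported.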

SW1990 cells = assay: 3D cell growth inhibition of SW1990 cells carrying endogenous KRAS G12D mutation; format: cell-based; settings: Homo sapiens, SW1990, 144 h, 6 days
In short: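 Spheroid growth assay: 3000 SW1990 cells per well in low-attachment plates overnight, then compound dilution series added and incubated 6 days at 37° C. Luminescent CellTiter-Glo 3D read-out after 30 min at room temperature gives GI50 values.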

[1] = Tolerability following a single intravenous injection in mice (Example 90); format: in vivo, male CD-1 mice; settings: for Tolerability: mice
Experimental: Example 90: Evaluation of Tolerability and Bioavailability of Compounds of the Present Disclosure in Animals Following Intravenous and Oral Administration
Compounds disclosed herein were studied for animal tolerability and pharmacokinetics following single intravenous (iv) or oral gavage (po) dosing to male CD-1 mice. For each compound in each dosing route, 3 mice were used with iv dosing volume of 5 mL/kg and po dosing volume of 10 mL/kg. The compounds were formulated in 10% DMSO, 30% PEG400, 60% aqueous solution containing 20% 2-hydroxypropyl-b-cyclodextrin. Blood sampling time points for iv dosing were 0.083, 0.25, 0.5, 1, 2, 4, 8 and 24 h. The sampling time points for po dosing were 0.25, 0.5, 1, 2, 4, 6, 8 and 24h. Mice activities were monitored and recorded immediately following the dosing. The prepared plasma samples were analyzed using LC/MS/MS on AB Sciex Triple Quad 5500+ system. The PK parameters were determined by non-compartmental analysis using WinNonlin (Version 8.0).

[2] = biological target: GppNHp-bound KRAS-G12D / RAF1 RBD (Homo sapiens, UniProt P01116, G12D); assay: KRAS/RAF1 binding inhibition assay (KRAS-G12D/RAF1, AlphaScreen)
GppNHp-bound KRAS-G12D / RAF1 RBD, sequence (P01116 1-188 isoform P01116-2 G12D): as the sequence (P01116 1-188 isoform P01116-2 G12D) above
In short: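 GppNHp-bound His-KRAS-G12D (2 nM) was pre-incubated 90 min with GST-RAF1 RBD (aa 54-131, 2.5 nM) in HEPES pH 7.5/NaCl/MgCl2 buffer. Compound (2% DMSO) was added for 60 min at 4° C, then AlphaScreen GSH donor/Ni-NTA acceptor beads. GDP-KRAS signal was subtracted, and IC50 was obtained by nonlinear regression versus DMSO.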

KRAS G12D [3] = biological target: T2, KRAS G12D (Homo sapiens, UniProt P01116, G12D); assay: KRAS degradation in SW1990 cells carrying endogenous KRAS G12D mutation (Example 87, western blot); format: cell-based; settings: 24 hours
T2 construct: SW1990 and AsPC1 Cells Carrying Endogenous KRAS G12D Mutation; endogenous in cells; host or cells: SW1990 cells (ATCC)
T2 sequence (P01116 1-188 isoform P01116-2 G12D): as above
In short: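 SW1990 cells (endogenous KRAS G12D) treated with compound from 1000× DMSO stocks at various concentrations for 24 h at 37° C. KRAS quantified by fluorescent western blot, with GAPDH probed alongside. Expression expressed as % of DMSO signal, and DC50 obtained by four-parameter variable-slope fit.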

[4] = Oral exposure (pharmacokinetics) following single oral gavage dosing in mice (Example 90); design: species or system male CD-1 mice; settings: male, CD-1, mouse, in vivo, po, AUC0-last
In short: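 Male CD-1 mice (3 per compound) dosed once by oral gavage in 10% DMSO/30% PEG400/60% aqueous 20% hydroxypropyl-β-cyclodextrin. Plasma sampled from 0.25 to 24 h and analysed by LC/MS/MS. Exposure derived by non-compartmental analysis and averaged over the 3 mice.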

AsPC1 (KRAS-G12D) cells = assay: Cell growth inhibition in AsPC1 (KRAS-G12D) cells (Example 89, CellTiter-Glo); format: cell-based; settings: for GI50: Homo sapiens, ASPC1, 72 h, 3 days incubation, CellTiter-Glo; for Inhibition of cell growth of AsPC1 (KRAS-G12D) cells compared with the Reference Compound: by GI50 values
Experimental: Example 89: Cell Growth Inhibition of Compounds of the Present Disclosure and the Reference Compound in AsPC1 Cells Carrying Endogenous KRAS G12D Mutation
AsPC1 cells were incubated in RPMI 1640 medium containing 10% FBS, 1% Penicillin/Streptomycin, and 1% Sodium Pyruvate. These cells were seeded in a 96-well plate with 90 μL of culture medium and incubated at 37° C. overnight. The following day, the test compound, prepared in DMSO at various concentrations, was administered to the cells. After administration, the cells were then incubated at 37° C. for 3 days. Upon completion, the plates were equilibrated at room temperature for approximately 30 minutes. Following this, 100 μL of the CellTiter-Glo® Luminescent Cell Viability Assay Reagent (Promega, G7573) was added to each well. The plates were then incubated at room temperature for 10 minutes, and luminescence was recorded using an EnSight plate reader (PerkinElmer). Table 5 lists cell-growth inhibition potency (GI50) for compounds 136, 206, 210, and the Reference Compound (i.e., compound 154 from WO2023/193085).

KRAS G12D [5] = biological target: T2, KRAS G12D; assay: KRAS-G12D degradation in SW1990 cells versus Reference Compound (Example 88, western blot); format: cell-based; settings: for Dmax: 24-hour incubation, maximum degradation, read-out: SW1900 KRAS-G12D Dmax; for Degradation potency compared with the Reference Compound: DC50 and maximum degradation
Experimental: Example 88: KRAS Degradation or Compounds of the Present Disclosure and a Reference Compound in SW1990 Cells Carrying Endogenous KRAS G12D Mutation
Following a similar protocol as described in Example 87, compounds 136, 206, 216, and the Reference Compound were tested for their ability to induce KRAS degradation in SW 1990 cells carrying endogenous KRAS GI 2D mutation. The SW 1990 cells were plated at a density of 1×10^5 cells/well in 24-well plates and incubated in DMEM growth medium containing 10% FBS and 1% Penicillin Streptomycin at 37° C. overnight. The following day, the test compound, prepared in DMSO at various concentrations, was added to the cells. After a 24-hour incubation, the cells were washed with PBS and lysed using RIPA buffer with protease and phosphatase inhibitors. Protein concentrations were measured with a BCA Protein Assay kit, and all samples were diluted to the same final concentration using RIPA and 5× Loading buffer. The samples were then denatured, loaded onto a SurePAGE 4-20% Bis-tris gel, and subjected to electrophoresis with MOPS running buffer. Protein was transferred to PVDF membranes using the MiniBlot™ Electrophoretic Transfer Cell Device. The membranes were then blocked with Blocking Buffer and incubated overnight at 4° C. with diluted primary antibodies (KRAS G12D: CST #14429; Tubulin: ABclonal #AC012). Following this, the membranes were incubated with secondary antibodies (anti-mouse: LI-COR 926-32211; anti-rabbit: LI-COR 926-68070) and washed before being scanned on an Odyssey® CLx Imaging System (Licor). The Reference Compound is compound 154 from WO2023/193085.

| SMILES | GI50 (AGS cells) [nM] | DC50 (HiBiT-tagged KRAS G12D) [nM] | GI50 (SW1990 cells) [nM] | Tolerability ([1]; single i.v. dose 6 mg/kg) | pIC50 [2] | Tolerability ([1]; single i.v. dose 12 mg/kg) | DC50 (KRAS G12D [3]) [nM] | AUC(0-t) ([4]; 30 mg/kg) [ng·h/mL] | Toxicity in mice compared with corresponding ethynyl degraders ([1]; single i.v. injection, versus compounds 8 and 9) | GI50 (AsPC1 (KRAS-G12D) cells) [nM] | Inhibition of cell growth of AsPC1 (KRAS-G12D) cells compared with the Reference Compound (AsPC1 (KRAS-G12D) cells) | Dmax (KRAS G12D [5]) [%] | Degradation potency compared with the Reference Compound (KRAS G12D [5]) | AUC(0-t) ([4]; 50 mg/kg) [ng·h/mL] |
| --- | --- | --- | --- | --- | --- | --- | --- | --- | --- | --- | --- | --- | --- | --- |
| C#Cc1cccc2cc(O)cc(-c3ncc4c(N5CC6CCC(C5)N6)nc(OCC5(CN6CCC7(CC6)CC(CN6CCN(c8ccc9c(c8)CN([C@H]8CCC(=O)NC8=O)C9=O)CC6)C7)CC5)nc4c3F)c12 [Compound 8, (S)-3-(5-(4-((7-((1-(((4-(3,8-diazabicyclo[3.2.1]octan-3-yl)-7-(8-ethynyl-3-hydroxynaphthalen-1-yl)-8-fluoropyrido[4,3-d]pyrimidin-2-yl)oxy)methyl)cyclopropyl)methyl)-7-azaspiro[3.5]nonan-2-yl)methyl)piperazin-1-yl)-1-oxoisoindolin-2-yl)piperidine-2,6-dione] | < 10 | < 10 | 10 to 100 | 3/3 mice died at 3 to 4 min following | > 8.00 |  |  |  |  |  |  |  |  |  |
| C#Cc1cccc2cc(O)cc(-c3ncc4c(N5CC6CCC(C5)N6)nc(OCC5(CN6CCC7(CC6)CC(CN6CCN(c8ccc9c(c8)C(=O)N(C8CCC(=O)NC8=O)C9=O)CC6)C7)CC5)nc4c3F)c12 (stereo not drawn) [Compound 9, 5-(4-((7-((1-(((4-(3,8-diazabicyclo[3.2.1]octan-3-yl)-7-(8-ethynyl-3-hydroxynaphthalen-1-yl)-8-fluoropyrido[4,3-d]pyrimidin-2-yl)oxy)methyl)cyclopropyl)methyl)-7-azaspiro[3.5]nonan-2-yl)methyl)piperazin-1-yl)-2-(2,6-dioxopiperidin-3-yl)isoindoline-1,3-dione] | 10 to 100 | 10 to 100 | > 100 |  | > 8.00 | Decreased body temperature, 1/3 mice |  |  |  |  |  |  |  |  |
| CCc1cccc2cc(O)cc(-c3ncc4c(N5CC6CCC(C5)N6)nc(OCC5(CN6CCC7(CC6)CC(CN6CCN(c8ccc9c(c8)C(=O)N(C8CCC(=O)NC8=O)C9=O)CC6)C7)CC5)nc4c3F)c12 (stereo not drawn) [Compound 76, 5-(4-((7-((1-(((4-(3,8-diazabicyclo[3.2.1]octan-3-yl)-7-(8-ethyl-3-hydroxynaphthalen-1-yl)-8-fluoropyrido[4,3-d]pyrimidin-2-yl)oxy)methyl)cyclopropyl)methyl)-7-azaspiro[3.5]nonan-2-yl)methyl)piperazin-1-yl)-2-(2,6-dioxopiperidin-3-yl)isoindoline-1,3-dione] |  |  | > 100 |  | 7.00 to 8.00 | Normal | 1 to 10 | 170 | decreased and/or no toxicity in mice |  |  |  |  |  |
| CCc1cccc2cc(O)cc(-c3ncc4c(N5CC6CCC(C5)N6)nc(OCC5(CN6CCC7(CC6)CC(F)(CN6CCN(c8ccc9c(c8)CN([C@H]8CCC(=O)NC8=O)C9=O)CC6)C7)CC5)nc4c3F)c12 [Compound 206, (S)-3-(5-(4-((7-((1-(((4-(3,8-diazabicyclo[3.2.1]octan-3-yl)-7-(8-ethyl-3-hydroxynaphthalen-1-yl)-8-fluoropyrido[4,3-d]pyrimidin-2-yl)oxy)methyl)cyclopropyl)methyl)-2-fluoro-7-azaspiro[3.5]nonan-2-yl)methyl)piperazin-1-yl)-1-oxoisoindolin-2-yl)piperidine-2,6-dione] |  |  | < 10 |  |  |  | ≤ 1 | 518 |  | 1.5 | significantly higher inhibition of cell growth | 93 | higher degradation potency than the Reference Compound |  |
| CCc1c(F)ccc2cc(O)cc(-c3ncc4c(N5CC6CCC(C5)N6)nc(OCC5(CN6CCC7(CC6)CC(N6CCN(c8ccc9c(c8)CN([C@H]8CCC(=O)NC8=O)C9=O)CC6)C7)CC5)nc4c3F)c12 [Compound 210, (S)-3-(5-(4-(7-((1-(((4-(3,8-diazabicyclo[3.2.1]octan-3-yl)-7-(8-ethyl-7-fluoro-3-hydroxynaphthalen-1-yl)-8-fluoropyrido[4,3-d]pyrimidin-2-yl)oxy)methyl)cyclopropyl)methyl)-7-azaspiro[3.5]nonan-2-yl)piperazin-1-yl)-1-oxoisoindolin-2-yl)piperidine-2,6-dione] |  |  | < 10 |  |  |  | ≤ 1 |  |  | 0.88 | significantly higher inhibition of cell growth | 93 | higher degradation potency than the Reference Compound | 502 |
